From patent publication US7884242B2, “N-heterocyclylphthaldiamides as insecticides” (Bayer CropScience AG, priority 2004, dated 2011) come the findings set out here.

Where a name gives a salt, the structure may show the parent alone.

Data set [1] is described as follows: log P determination by HPLC on reverse phase column, pH 2.3. Particulars: reverse phase column (C 18), pH 2.3, 43° C.; for chromatographic logP: reverse phase HPLC column (C 18). The class given is physicochemical. As for the experimental part: The determination of the log P values given in the above table and preparation examples is carried out in accordance with EEC directive 79/831 Annex V.A8 by HPLC (High Performance Liquid Chromatography) on a reverse phase column (C 18). Temperature: 43° C. The determination is carried out under acidic conditions at pH 2.3 with 0.1% aqueous phosphoric acid and acetonitrile as eluents; linear gradient of 10% acetonitrile to 95% acetonitrile. Calibration was is carried out with unbranched alkan-2-ones (with 3 to 16 carbon atoms) of known log P values (Determination of log P values by the retention times by linear interpolation between two sequential alkanones).

For data set [2], the system named is green peach aphid (Myzus persicae). As to the kind of experiment: Myzus test (spray treatment). The class given is in vivo. As to conditions: for pest or weed control at 100 g/ha: Myzus persicae, in Brassica oleracea, 120 h, read-out: Death rate in % after 5d; for activity in Myzus test (spray treatment): statement in words. Here is the method: [table] For the preparation of a suitable active compound formulation 1 part by weight of the active compound is mixed with the above amounts of solvent and emulsifier and the concentrate is diluted to the desired concentration with water containing emulsifier. China cabbage slices (Brassica pekinensis) that are infected with all stages of the green peach aphid (Myzus persicae) are sprayed with an active compound preparation at the desired concentration. After the desired time the activity in % is determined. Here 100% means that all aphids were killed; 0% means that no aphids were killed.

The subject of data set [3] is caterpillars of the fall army worm (Spodoptera frugiperda). As to the kind of experiment: Spodoptera frugiperda test (spray treatment). It counts as in vivo. Here is the method:
[table] For the preparation of a suitable active compound formulation 1 part by weight of the active compound is mixed with the above amounts of solvent and emulsifier and the concentrate is diluted to the desired concentration with water containing emulsifier. Maize leaf sections (Zea mays) are sprayed with an active compound preparation of the desired concentration and after drying infected with caterpillars of the fall army worm (Spodoptera frugiperda). After the desired time the activity in % is determined. Here 100% means that all caterpillars were killed; 0% means that no caterpillars were killed.

The mark [4] stands for this setting: 100 g/ha, spray treatment, China cabbage slices, after 5 d.

Consider `Cc1nc(Cn2nc(C(F)(F)F)cc2C(F)(F)F)ccc1NC(=O)c1cccc(Br)c1C(=O)NC(C)CS(C)(=O)=O` (stereo not shown) [Example 45], for which the “log P (pH 2.3)” value in data set [1] is on record as “log P (pH 2.3): 2.76”.

By chromatographic logP is commonly meant a lipophilicity value derived from retention on a column. A higher chromatographic logP goes with a more lipophilic compound. On to `Cc1nc(Cn2nc(C(F)(F)C(F)(F)F)nc2C(F)(F)F)ncc1NC(=O)c1cccc(Cl)c1C(=O)N[C@@H](C)C[S+](C)[O-]` (stereo partly shown) [Example 29], for which, in data set [1], the chromatographic logP came out at 2.41. The pest or weed control at 100 g/ha in data set [2] (setting [4]) was determined as 100%. In data set [2], the “activity in Myzus test (spray treatment)” value is on record as “good activity”. In addition, in data set [3] (Spodoptera frugiperda, 168 h, 4 g/ha, spray treatment, maize leaf sections, after 7 d, read-out: Death rate in % after 7d), the pest or weed control at 4 g/ha was found to be 100%. Moreover, in data set [3] (statement in words), the “activity in Spodoptera frugiperda test (spray treatment)” value is recorded as “good activity”.

In the case of `CSCC(C)NC(=O)c1c(Cl)cccc1C(=O)Nc1ccc(Cn2nc(C(F)(F)C(F)(F)F)cc2C(F)(F)C(F)(F)F)nc1C` (stereo not shown) [Example 49], the “log P (pH 2.3)” value in data set [1] is listed as “log P (pH 2.3): 4.37”.

`Cc1nc(Cn2nc(C(F)(F)C(F)(F)F)nc2C(F)(F)F)ncc1NC(=O)c1cccc(Br)c1C(=O)N[C@@H](C)C[S+](C)[O-]` (stereo partly shown) [Example 28] had a chromatographic logP in data set [1] of 2.42. Moreover, the pest or weed control at 100 g/ha in data set [2] (setting [4]) was determined as 100%. Moreover, in data set [2], the “activity in Myzus test (spray treatment)” value was “good activity”.

For `CSCC(C)NC(=O)c1c(Cl)cccc1C(=O)Nc1ccc(Cn2nc(C(F)(F)C(F)(F)F)nc2C(F)(F)F)nc1C` (stereo not shown) [Example 43], the “log P (pH 2.3)” value in data set [1] is “log P (pH 2.3): 3.80”.

On to `Cc1nc(Cn2nc(C(F)F)cc2C(F)F)ncc1NC(=O)c1cccc(Cl)c1C(=O)NC(C)C[S+](C)[O-]` (stereo not shown) [Example 32], for which, in data set [1], the “log P (pH 2.3)” value was “log P (pH 2.3): 1.67”.

Regarding `CSCC(C)NC(=O)c1c(Cl)cccc1C(=O)Nc1ccc(Cn2nc(C(F)(F)C(F)(F)F)nc2C(F)(F)C(F)(F)F)nc1C` (stereo not shown) [Example 47], in data set [1], the “log P (pH 2.3)” value is reported as “log P (pH 2.3): 4.23”.

The molecule `CSC[C@H](C)NC(=O)c1c(Cl)cccc1C(=O)Nc1cc(Cn2nc(C(F)(F)F)nc2C(F)(F)F)sc1C` [Example 3] returned a chromatographic logP in data set [1] of 3.8.

Consider `Cc1nc(Cn2nc(C(F)(F)C(F)(F)F)cc2C(F)(F)C(F)(F)F)ncc1NC(=O)c1cccc(Cl)c1C(=O)NC(C)C[S+](C)[O-]` (stereo not shown) [Example 26], for which, in data set [1], the “log P (pH 2.3)” value is “log P (pH 2.3): 2.91”.

In data set [1], `Cc1nc(Cn2nc(C(F)(F)F)cc2C(F)(F)F)ncc1NC(=O)c1cccc(Br)c1C(=O)N[C@@H](C)C[S+](C)[O-]` (stereo partly shown) [Example 23] registered a chromatographic logP of 2.2. For the same molecule, in data set [2] (setting [4]), the pest or weed control at 100 g/ha came out at 80%. Also, the “activity in Myzus test (spray treatment)” value in data set [2] is recorded as “good activity”.

Regarding `Cc1nc(Cn2nc(C(F)(F)F)nc2C(F)(F)F)ncc1NC(=O)c1cccc(Br)c1C(=O)N[C@@H](C)CS(C)(=O)=O` [Example 37], in data set [1], the chromatographic logP stood at 2.49. Also, the pest or weed control at 100 g/ha in data set [2] (setting [4]) stood at 100%. Moreover, in data set [2], the “activity in Myzus test (spray treatment)” value is given as “good activity”.

For the molecule `CSCC(C)NC(=O)c1c(Cl)cccc1C(=O)Nc1ccc(Cn2nc(C(F)(F)C(F)(F)F)cc2C(F)(F)F)nc1C` (stereo not shown) [Example 42], the “log P (pH 2.3)” value in data set [1] is given as “log P (pH 2.3): 3.95”.

On to `CSCC(C)NC(=O)c1c(I)cccc1C(=O)Nc1ccc(Cn2nc(C(F)(F)F)nc2C(F)(F)F)nc1C` (stereo not shown) [Example 12], for which, in data set [1], the “log P (pH 2.3)” value is listed as “log P (pH 2.3): 3.52”.

As to `Cc1nc(Cn2nc(C(F)(F)F)cc2C(F)(F)F)ncc1C(=O)O` [2-(3,5-bistrifluoromethylpyrazol-1-yl-methyl)-4-methylpyrimidin-5-carboxylic acid], in data set [1], the chromatographic logP came out at 2.68.

The molecule `CSC[C@H](C)NC(=O)c1c(Br)cccc1C(=O)Nc1cnc(Cn2nc(C(F)(F)F)nc2C(F)(F)F)nc1C` [Example 21] showed a chromatographic logP in data set [1] of 3.29. The pest or weed control at 100 g/ha in data set [2] (setting [4]) worked out at 100%. The “activity in Myzus test (spray treatment)” value in data set [2] is given as “good activity”.

With `Cc1nc(Cn2nc(C(F)(F)F)cc2C(F)(F)F)ccc1NC(=O)c1cccc(Br)c1C(=O)NC(C)C[S+](C)[O-]` (stereo not shown) [Example 11], in data set [1], the “log P (pH 2.3)” value was “log P (pH 2.3): 2.32”.

As to `Cc1nc(Cn2nc(C(F)(F)F)cc2C(F)(F)F)ncc1N` [IIIa-2, 2-(3,5-bis-trifluoromethylpyrazol-1-yl-methyl)-4-methylpyrimidin-5-yl-amine], the chromatographic logP in data set [1] was determined as 2.43.

`Cc1nc(Cn2nc(C(F)(F)F)cc2C(F)(F)F)ncc1NC(=O)OC(C)(C)C` [VI-1, tert-butyl [2-(3,5-bistrifluoromethylpyrazol-1-ylmethyl)-4-methylpyrimidin-5-yl]carbamidate] registered a chromatographic logP in data set [1] of 3.84.

Consider `Cc1nc(Cn2nc(C(F)(F)F)cc2C(F)(F)F)ncc1NC(=O)c1cccc(Cl)c1C(=O)N[C@@H](C)C[S+](C)[O-]` (stereo partly shown) [Example 39], for which the “Death rate in % after 5d” value in data set [2] (setting [4]) is 100%. Besides, the “activity in Myzus test (spray treatment)” value in data set [2] is reported as “good activity”.

`Cc1nc(Cn2nc(C(F)(F)F)nc2C(F)(F)F)ncc1NC(=O)c1cccc(Br)c1C(=O)N[C@@H](C)C[S+](C)[O-]` (stereo partly shown) [Example 36] came in with a chromatographic logP in data set [1] of 2.07. Moreover, the pest or weed control at 100 g/ha in data set [2] (setting [4]) amounted to 100%. In addition, in data set [2], the “activity in Myzus test (spray treatment)” value is “good activity”.

`CSC[C@H](C)NC(=O)c1c(Cl)cccc1C(=O)Nc1cnc(Cn2nc(C(F)(F)F)nc2C(F)(F)F)nc1C` [Example 20]: the chromatographic logP in data set [1] is 3.24. Further, the pest or weed control at 100 g/ha in data set [2] (setting [4]) was found to be 100%. Besides, the “activity in Myzus test (spray treatment)” value in data set [2] was “good activity”.

For the molecule `Cc1nc(Cn2nc(C(F)(F)C(F)(F)F)cc2C(F)(F)C(F)(F)F)ncc1NC(=O)c1cccc(Cl)c1C(=O)NC(C)CS(C)(=O)=O` (stereo not shown) [Example 25], the “log P (pH 2.3)” value in data set [1] was “log P (pH 2.3): 3.29”.

In data set [1], `CSC[C@H](C)/N=C1\OC(=O)c2cccc(I)c21` [II-1, 4-iodo-3-[(1S)-1-methyl-2-methylsulphanylethylimino]-3H-isobenzofuran-1-one] came in with a chromatographic logP of 3.87.

In data set [1], `CSC[C@H](C)NC(=O)c1c(Cl)cccc1C(=O)Nc1cnc(Cn2nc(C(F)(F)F)cc2C(F)(F)F)nc1C` [Example 4, N^1-[2-(3,5-bis-trifluoromethyl-pyrazol-1-ylmethyl)-4-methylpyrimidin-5-yl]-3-chloro-N^2-(S-1-methyl-2-methylsulphanylethyl)phthalamide] registered a chromatographic logP of 3.39.

With `CSCC(C)NC(=O)c1c(Cl)cccc1C(=O)Nc1cnc(Cn2nc(C(F)(F)C(F)(F)F)cc2C(F)(F)C(F)(F)F)nc1C` (stereo not shown) [Example 27], the “log P (pH 2.3)” value in data set [1] is “log P (pH 2.3): 4.11”.

Molecule `N=C(N)Cn1nc(C(F)(F)F)cc1C(F)(F)F` [IX-1, 2-(3,5-bistrifluoromethyl-pyrazol-1-yl)acetamidine hydrochloride] had a chromatographic logP in data set [1] of 0.74.

Regarding `CSC[C@H](C)NC(=O)c1c(I)cccc1C(=O)Nc1cnc(Cn2nc(C(F)(F)F)nc2C(F)(F)F)nc1C` [Example 22], in data set [1], the chromatographic logP was found to be 3.35. In addition, the pest or weed control at 100 g/ha in data set [2] (setting [4]) was determined as 90%. Besides, the “activity in Myzus test (spray treatment)” value in data set [2] is given as “good activity”.

Consider `CSCC(C)NC(=O)c1c(Cl)cccc1C(=O)Nc1cnc(Cn2nc(C(F)F)cc2C(F)F)nc1C` (stereo not shown) [Example 35], for which the “log P (pH 2.3)” value in data set [1] is “log P (pH 2.3): 2.65”.

With `Cc1nc(Cn2nc(C(F)(F)F)nc2C(F)(F)F)ncc1NC(=O)c1cccc(I)c1C(=O)N[C@@H](C)C[S+](C)[O-]` (stereo partly shown) [Example 40], the chromatographic logP in data set [1] is 2.13. Moreover, in data set [2] (setting [4]), the pest or weed control at 100 g/ha stood at 100%. The “activity in Myzus test (spray treatment)” value in data set [2] was “good activity”.

For `Cc1nc(Cn2nc(C(F)(F)F)cc2C(F)(F)F)ncc1NC(=O)c1cccc(Cl)c1C(=O)N[C@@H](C)C[S+](C)[O-]` (stereo partly shown) [Example 5, N^1-[2-(3,5-bistrifluoromethylpyrazol-1-ylmethyl)-4-methylpyrimidin-5-yl]-3-chloro-N^2-(S-2-methanesulphinyl-1-methylethyl)phthalamide], the chromatographic logP in data set [1] is 2.17. In addition, the pest or weed control at 100 g/ha in data set [2] (setting [4]) came to 80%. The “activity in Myzus test (spray treatment)” value in data set [2] is “good activity”.

Consider `CSCC(C)NC(=O)c1c(Cl)cccc1C(=O)Nc1ccc(Cn2nc(C(F)(F)C(F)(F)F)c(C(F)(F)F)c2F)nc1C` (stereo not shown) [Example 46], for which the “log P (pH 2.3)” value in data set [1] was “log P (pH 2.3): 4.15”.

For `Cc1nc(Cn2nc(C(F)(F)F)cc2C(F)(F)F)ncc1NC(=O)c1cccc(Cl)c1C(=O)N[C@@H](C)CS(C)(=O)=O` [Example 38], in data set [2] (setting [4]), the pest or weed control at 100 g/ha amounted to 100%.

On to `Cc1nc(Cn2nc(C(F)F)cc2C(F)F)ncc1NC(=O)c1cccc(Cl)c1C(=O)NC(C)CS(C)(=O)=O` (stereo not shown) [Example 33], for which the “log P (pH 2.3)” value in data set [1] is “log P (pH 2.3): 1.89”.

Turning to `CCOC(=O)c1cnc(Cn2nc(C(F)(F)F)cc2C(F)(F)F)nc1C` [Example V-1, ethyl 2-(3,5-bistrifluoromethyl-pyrazol-1-yl-methyl)-4-methylpyrimidine-5-carboxylate], the chromatographic logP in data set [1] is 3.96.

Consider `COC(=O)Cn1nc(C(F)(F)F)cc1C(F)(F)F` [methyl (3,5-bistrifluoromethyl-pyrazol-1-yl)acetate], for which, in data set [1], the chromatographic logP is 2.93.
